What was measured:
[1] = biological target: T1, hemichannel activity in HCMVEC cells (Homo sapiens, UniProt P17302); test: Whole-cell voltage clamp, hCMVEC cells; format: cell-based; conditions: for hemichannel activity: 50 μM
T1 construct: isolated human cerebral microvascular endothelial cells (hCMVEC); endogenous in cells; host or cells: hCMVEC
Description: Whole-cell voltage clamp studies were conducted on connexin deficient HeLa cells, Connexin43 transfected HeLa cells and isolated human cerebral microvascular endothelial cells (hCMVEC).
HCMVEC Cells were placed into an extracellular artificial cerebral spinal fluid solution containing (in mM): 144 NaCl, 3.3 KCl, 1.8 CaCl2, 1.8 MgCl2, 10 mM glucose, pH: 7.385 at temperature 37° C. The intracellular pipette solution contained (in mM): 130 KCl, 10 sodium aspartate, 0.26 CaCl2, 2 EGTA, 5 tetraethylammonium-Cl, 1 MgCl2,3 MgATP, 5 Hepes at pH 7.2; and was kept on ice to prevent MgATP breakdown. Pipette resistance was 3.4MΩ with seal resistance=1.3 GΩ. Voltage and perfusion protocols are conducted simultaneously, with cells continuously perfused. Recordings for analysis were taken before Tonabersat perfusion, during and after washout. For channel block studies, 50 μM Tonabersat was washed in for three mins prior to recording, and subsequently washed out three mins before taking the washout recordings.

hCMVEC cells [2] = test: MTT assay for cell viability; format: cell-based, human; conditions: 200 μM, 24-hour treatment
Description: Stock MTT was prepared by dissolving 5 mg in 1 mL PBS producing a concentration of 5 mg/mL. After the treatment incubation period of cells seeded in a 96 well-plate (at 1×10^4 cells/well) the media was removed and replaced with 100 μL of PBS. 10 μL of MTT stock solution was added to each well, except for those that were used as a blank, and left to incubate at 37° C. for 4 hours at which time the solutions was aspirated from each well. Then 50 μL DMSO (Sigma) was added to each well to dissolve the crystalline product. Viability was determined by measuring the absorbance of the purple crystal produced. This was measured by reading the absorbance at 595 nm in a plate reader; the data was standardized to each control as an internal standard. Statistically was investigated using One-way ANOVA and Tukey's post hoc test where *p<0.05.

hCMVEC cells [3] = test: Scrape load assay (Lucifer yellow dye transfer); format: cell-based, human
Description: In the below Examples 2, 4, 5, 8 and 10 using human cerebral microvascular endothelial cells (hCMVEC), cells were prepared by growing them in collagen coated (30 μg/mL) T25 or T75 flasks maintained in Medium M199 supplemented with 10% FCS, 1 μg/mL hydrocortisone, 3 ng/mL hFGF, 1 ng/mL hEGF, 10 μg/mL heparin, 1× penicillin streptomycin neomycin (Life Technologies), and cAMP (100 μL 100% cAMP to 100 mL media). Cells were maintained at 37° C. with 95% O2 and 5% CO2.
In this Example, human cerebral microvascular endothelial cells (hCMVEC) were grown in collagen coated (1 μg/mL) T25 flasks maintained in Medium M199 supplemented with 10% FBS, 1 μg/mL hydrocortisone, 3 ng/mL hFGF, 1 ng/mL hEGF, 10 μg/mL heparin and cAMP (100 μL 100% cAMP to 100 mL media) in a humidified atmosphere at 37° C. with 5% CO2. One day prior to experimentation, these cells were trypsinized and plated at a density of 4×10^5 cells/well in a collagen-coated 12 well-plate in the same medium. For treatments, cells were cultured in the presence of peptide5, a control gap junction channel blocker (carbenoxolone), or tonabersat for the respective time intervals prior to scrape dye loading. The blockers were also present in the respective scrape loading solutions.
For scrape loading the hCMVEC cells were washed three times with phosphate buffered saline (PBS) (without divalent cations). A solution of PBS+0.05% lucifer yellow was added to cells. The cells then received a scrape to the monolayer using a size 10 carbon steel surgical blade and incubated in the dark at 37° C. with 5% CO2 for 5 minutes. The cells were washed with PBS four times and then 1 mL of PBS added for fluorescent microscopy.
The live cells were then imaged on a Nikon TE2000E fluorescent microscope whilst maintained in a chamber heated to 37° C. with 5% CO2. Three images pairs were obtained at 10× magnification for each of a phase contrast image to view total cells and a fluorescent image to visualize Lucifer yellow using 488 nm excitation and a GFP filter block. Gap junctional communication was determined by counting the number of Lucifer yellow positive cells and presented as a percentage to the positive cells of the control group. Data was graphed as mean+standard error of the mean using Prism v5.02 software. Significance was determined through students two-tailed, unpaired, T Tests. *=p<0.05, **=[…], ***=p<0.001.
An in vitro scrape-loading assay with extracellular Lucifer Yellow (LY), a fluorescent dye that is transferred only through coupled GJs was performed to test whether Tonabersat inhibits GJ communication (M. H. el-Fouly, et al., Experimental cell research 168, 422 (February, 1987)). A single scrape wound was made to a confluent monolayer of hCMVEC cells to enable LY dye to gain access to the cytoplasm of cells at the edge of the wounded region and allow the dye to transfer to adjacent cells through GJs.

T1 sequence (P17302 2-382): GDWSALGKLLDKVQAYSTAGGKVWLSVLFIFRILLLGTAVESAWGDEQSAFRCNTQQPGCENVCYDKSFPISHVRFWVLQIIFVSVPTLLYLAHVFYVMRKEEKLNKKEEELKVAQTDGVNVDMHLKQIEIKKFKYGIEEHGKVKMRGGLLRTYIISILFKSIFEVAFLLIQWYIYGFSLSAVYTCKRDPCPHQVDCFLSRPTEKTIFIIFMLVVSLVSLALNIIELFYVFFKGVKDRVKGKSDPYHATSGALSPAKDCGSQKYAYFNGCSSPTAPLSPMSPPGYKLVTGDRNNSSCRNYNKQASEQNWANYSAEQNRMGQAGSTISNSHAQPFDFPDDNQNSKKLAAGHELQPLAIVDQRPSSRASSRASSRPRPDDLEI

CC(=O)c1ccc2c(c1)[C@H](NC(=O)c1ccc(F)c(Cl)c1)[C@H](O)C(C)(C)O2 [Tonabersat, N-[(3S,4S)-6-acetyl-3-hydroxy-2,2-dimethyl-3,4-dihydrochromen-4-yl]-3-chloro-4-fluorobenzamide]
time to block connexin hemichannels [1]: within one minute | hemichannel activity ([1]; after three minutes of washout): some activity returning after washout | hemichannel activity ([1]; during incubation): almost completely abolishes hemichannel activity | cell viability (hCMVEC cells [2]): did not significantly reduce cell viability | concentration at which GJs are uncoupled (hCMVEC cells [3]): ≥ 50 µM | time to gap junction uncoupling effect (hCMVEC cells [3]; 50 μM): ≤ 1 min | gap junction uncoupling (LY dye transfer) (hCMVEC cells [3]; 50 μM added immediately): did not significantly reduce GJ coupling | gap junction uncoupling (LY dye transfer) (hCMVEC cells [3]; 50 μM added immediately, listed as tonabersat): statistically significant gap junction uncoupling effect | gap junction uncoupling (LY dye transfer) (hCMVEC cells [3]; 50 μM, 1 hour prior to the assay): did not significantly reduce GJ coupling | LY positive cells compared to control (hCMVEC cells [3]; 50 μM, 2 hours): 72.5±7.4% | LY positive cells compared to control (hCMVEC cells [3]; 50 μM, 6 hours): 62.8±7.4% | LY positive cells compared to control (hCMVEC cells [3]; 50 μM, 24 hours): 50.5±8.4% | LY positive cells compared to control (hCMVEC cells [3]; 100 μM): 46.7±7.8% | LY positive cells compared to control (hCMVEC cells [3]; 0.1, 1 and 10 μM, 2 hours): no significant reduction in LY positive cells | LY positive cells compared to control (hCMVEC cells [3]; 0.1, 1 and 10 μM, 24 hours): no significant reduction in LY positive cells

Source: patent publication US11401516B2, “Channel modulators” (AUCKLAND UNISERVICES LIMITED, priority 2014, dated 2022)
